Measurements from patent publication US20120315624A1, “Using LNA Flow-Fish to Quantitatively Monitor Viral Infections in Infected Cells and Test the Efficacy of Antiviral Medications” (priority 2011, published 2012).

How the values were obtained:
Sindbis virus (SV) [1] = assay: LNA flow-FISH of Sindbis virus RNA in infected cells with and without antiviral; type: cell-based
Procedure: Cells were infected with the virus of interest and harvested at various timepoints during infection. Cells were harvested and fixed with 4% paraformaldehye and 5% acetic acid in phosphate-buffered saline (PBS) for 10 min at room temperature. After fixation, the cells were washed twice in PBS and stored at 4° C. until use.
A control oligonucleotide and a specific biotinylated LNA-modified DNA oligonucleotide were used for the quantification of SV RNA. The sequences of the probes along with other relevant details are found in reference 30. The control probe is a nonspecific 22-mer oligonucleotide (nonspecific LNA) lacking complementarity to cellular nucleic acids and having a Tm of 75° C. The specific LNA probe (SV LNA), complementary to the SV RNA portion encoding the structural proteins, was also a 22-mer with a Tm of 76° C. Each had approximately one-third locked nucleic acid content.
When ready to detect the virus present in the cells at various timepoints, the cells were permeabilized with 0.1 μg/mL Proteinase K in TE buffer (pH 8.0) for 30 min at 37° C. The cells were then washed twice with PBS. A pre-hybridization step was then carried out under the same conditions as the hybridization, but without LNA probe. After pre-hybridization, a solution of 0.1× saline-sodium citrate (SSC) buffer was added followed by centrifugation and removal of the supernatant. […]
To use the LNA flow-FISH method to study the efficacy of antiviral medication, before, during, or after infection, cells were treated with an antiviral compound and left for various amounts of time. […] The change in viral nucleic acid with antiviral treatment can be quantified by taking the mean fluorescence intensity (MFI) or by examining the percent of infected cells compared to uninfected cells.
(§1) As an example, Sindbis virus (SV) was used along with Ribavirin (Rbv), an antiviral, to test the LNA flow-FISH method for studying the action and efficacy of antiviral medications. […] Samples infected with SV with and without Rbv were analyzed by LNA flow-FISH.

Sindbis virus (SV) [2] = assay: EGFP signal of the recombinant Sindbis virus measured by flow cytometry; type: cell-based; details: SV-infected cells, 6-h incubation with Rbv, FIG. 4
Procedure: Sindbis virus (SV) was used to test the LNA flow-FISH method for the quantitative monitoring of a viral infection in cells. After infecting cells with SV, cells were collected at different timepoints and their mean fluorescence intensity (MFI) was measured using flow cytometry. The LNA flow-FISH technique was directly compared with a genetic recombination method of measuring viral infection—this was possible because the SV strain has an enhanced green fluorescent protein (eGFP) construct incorporated into the viral RNA. […] In addition, lysed cells were used to compare the LNA flow-FISH results with QRT-PCR.
To use the LNA flow-FISH method to study the efficacy of antiviral medication, before, during, or after infection, cells were treated with an antiviral compound and left for various amounts of time. The LNA flow-FISH method is then used as described above. The change in viral nucleic acid with antiviral treatment can be quantified by taking the mean fluorescence intensity (MFI) or by examining the percent of infected cells compared to uninfected cells.
as §1

[3] = system: many DNA and RNA viruses including Sindbis; details: general statement on the nucleoside analog; cited from earlier work

NC(=O)c1ncn([C@@H]2O[C@H](CO)[C@@H](O)[C@H]2O)n1 [Rbv, Ribavirin]
viral replication (SV RNA by LNA flow-FISH) (Sindbis virus (SV) [1]; 6-h incubation with Rbv, FIG. 4): reduction in viral replication
mean fluorescence intensity (MFI) of samples with Rbv versus samples without antiviral (Sindbis virus (SV) [1]; 6 h, SV LNA flow-FISH and EGFP, FIG. 4): drastically lower
uninfected cells in the population when Rbv present (Sindbis virus (SV) [1]; 6 h with Rbv): no uninfected cells were observed
viral expression (EGFP) (Sindbis virus (SV) [2]): reduction
replication of viruses [3]: inhibits the replication of many DNA and RNA viruses including Sindbis
